Results as given in PubChem BioAssay (NCI).
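Tested at 5 concentrations; 48 h exposure; 96-well plates; endpoints linearly interpolated, else capped at highest concentration. GI50: concentration for 50% inhibition of growth. TGI: total growth inhibition.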 Where a SMILES comes first, the peptide text is derived from it.

Legend:
Assay in all cases: inhibition of tumour cell growth, NCI panel, 48 h
[1] = system: UACC-257 melanoma
[2] = system: K-562 leukemia
[3] = system: HS 578T breast
[4] = system: U251 CNS
[5] = system: HCT-116 colon
[6] = system: UO-31 renal
[7] = system: MDA-MB-231 breast
[8] = system: MDA-MB-435
[9] = system: NCI-H460 lung
[10] = system: RPMI-8226 leukemia

SMILES	TGI [1]	TGI [2]	TGI [3]	TGI [4]	TGI [5]	TGI [6]	TGI [7]	TGI [8]	TGI [9]	TGI [10]	GI50 [2]	GI50 [1]	GI50 [3]	GI50 [4]	GI50 [5]	GI50 [9]	GI50 [10]	GI50 [6]	GI50 [7]	GI50 [8]
CCCC(CC)c1cc(O)c(O)cc1C(CC)CCC (stereo not given)	> 10 µM	> 10 µM	> 10 µM	> 10 µM	> 10 µM	> 10 µM	> 10 µM	> 10 µM	> 10 µM	> 10 µM										
COC(=O)c1c(C)cccc1C1CN=NC12Cc1cccc(C)c1C2=O (stereo not given)	57.7 µM	79.5 µM	> 100 µM	> 100 µM	> 100 µM	67.7 µM		> 100 µM	45.1 µM	> 100 µM										
COc1cccc(OC/C(N=Cc2ccncc2)=N/NC(=O)c2ccncc2)c1	> 100 µM	> 100 µM	> 100 µM	> 100 µM	> 100 µM		> 100 µM	> 100 µM	> 100 µM	> 100 µM										
COc1ccc(C[C@H]2COC(=O)[C@@H]2Cc2ccccc2)cc1OC	> 100 µM	> 100 µM	> 100 µM	> 100 µM	> 100 µM		> 100 µM		> 100 µM	> 100 µM										
N#CC(NNC(=O)c1ccccc1O)c1ccc(O)cc1 (stereo not given)	> 100 µM	> 100 µM		> 100 µM	> 100 µM	11.9 µM			> 100 µM	> 100 µM										
CC(C)(C)C(=O)O[C@H]1C=C[C@@H](O)[C@@H]2[C@H]1[C@@H]1C=C[C@H]2C1	27.1 µM	> 100 µM	> 100 µM	> 100 µM	> 100 µM	> 100 µM	> 100 µM		> 100 µM	83 µM										
CCCCCCCCCCC[N+]1(Cc2ccccc2)CC2CCN(Cc3ccccc3)CC2C1 (stereo not given)	1.14 µM	0.827 µM	1.57 µM	1.11 µM	1.45 µM	2.56 µM			2.58 µM	0.378 µM										
CC(C)CCCC(C)[C@H]1CC[C@H]2NCCCC[C@]12C (stereo not given in full)	9.37 µM	6.61 µM	15.8 µM	5.88 µM	20 µM	20.7 µM	9.36 µM	4.1 µM	4.25 µM	4.01 µM										
COC(=O)NC(Nc1ccc(C)cc1)(C(F)(F)F)C(F)(F)F	> 100 µM	> 100 µM	> 100 µM	> 100 µM	> 100 µM	> 100 µM	> 100 µM	> 100 µM	> 100 µM	> 100 µM										
Cc1cc(=O)[nH]c(NN2C(Cl)C(=O)C2c2ccco2)n1 (stereo not given)	> 100 µM	> 100 µM		> 100 µM	> 100 µM	> 100 µM			> 100 µM	38.3 µM										
O=C1/C(=C/c2cccs2)N=C(c2ccccc2)N1c1nc2ccccc2s1	> 100 µM	> 100 µM	38.9 µM	> 100 µM	> 100 µM	> 100 µM	> 100 µM	> 100 µM	> 100 µM	52.2 µM										
S=c1oc(CCCCCCCCc2nn(CNc3ccc(Cl)cc3)c(=S)o2)nn1CNc1ccc(Cl)cc1	> 100 µM	> 100 µM		> 100 µM	> 100 µM	> 100 µM	> 100 µM	> 100 µM	> 100 µM	> 100 µM										
CCCCNC(=S)Nc1nc(C(=O)NNC(=S)NCc2ccccc2)cs1	83.9 µM	> 100 µM		> 100 µM	> 100 µM	> 100 µM	> 100 µM	> 100 µM		> 100 µM										
COC(C/C=C\C=C\CC/C=C/CC(C)/C=C/C(=C\C(=O)O)CC(=O)O)/C(C)=C\C=C(/C)C(=O)O (stereo not given)	> 100 µM		> 100 µM	> 100 µM	> 100 µM	> 100 µM	> 100 µM	> 100 µM	> 100 µM	> 100 µM										
c1cc2c3c(c1)[C@@H]1O[C@@H]1c1cccc(c1-3)[C@@H]1O[C@H]21	48.4 µM	> 100 µM	40 µM	33 µM	38.5 µM	30.3 µM	41.8 µM	32.5 µM												
C=C1CN=C(Nc2ccc(F)cc2F)S1	> 100 µM	> 100 µM	> 100 µM	> 100 µM	> 100 µM	> 100 µM	> 100 µM		> 100 µM	> 100 µM										
C#Cc1cccc(Nc2ncnc3cc(OCCOC)c(OCCOC)cc23)c1	> 100 µM	> 100 µM	86.3 µM	99 µM	> 100 µM	74.5 µM	44.2 µM	> 100 µM	> 91.4 µM	> 74.7 µM	27.7 µM									
Clc1ccc(Cc2nc3ccccc3nc2-c2cccc(Cl)c2)cc1	39.3 µM	5.79 µM	12.4 µM	16.7 µM	3.29 µM	3.32 µM	10.4 µM	4.09 µM	37.8 µM	2.14 µM										
COc1ccccc1NC(=O)CSC(N)=O	> 100 µM	> 100 µM		66.2 µM	36.6 µM				> 100 µM	> 100 µM										
C=C1CC(Cn2cc(Br)c(=O)[nH]c2=O)(c2ccc(Br)cc2)OC1=O (stereo not given)	4.11 µM	> 100 µM	> 32.4 µM	28.8 µM	2.75 µM	27.1 µM	17.4 µM	10.4 µM	35.6 µM	1.61 µM										
CC(=O)Nc1nc(C)c(S(=O)(=O)NC(=O)N2c3ccccc3CCc3ccccc32)s1	> 100 µM	> 100 µM	> 100 µM	> 100 µM	> 100 µM	> 100 µM	> 100 µM	> 100 µM	> 100 µM	> 100 µM										
O=C1CCc2cc3c(cc21)C(C(=O)O)CC3 (stereo not given)	> 100 µM	> 100 µM	> 100 µM	> 100 µM	> 100 µM	> 100 µM	> 100 µM		> 100 µM	> 100 µM										
CCC(C)C(NC(=O)C1CCCN1)C(=O)NC(C(=O)NCC(=O)NC(CC(N)=O)C(=O)NC(CC(C)C)C(=O)NC(CC(C)C)C(=O)NC(CCCCN)C(N)=O)C(C)C (stereo not given) (H-PIVGNLLK-NH2; configuration not given here)	> 75 µM	> 75 µM	> 75 µM	> 75 µM	> 75 µM	> 75 µM	> 75 µM	> 75 µM		> 75 µM										

SMILES	TGI [1]	TGI [2]	TGI [3]	TGI [4]	TGI [5]	TGI [6]	TGI [7]	TGI [8]	TGI [9]	TGI [10]	GI50 [2]	GI50 [1]	GI50 [3]	GI50 [4]	GI50 [5]	GI50 [9]	GI50 [10]	GI50 [6]	GI50 [7]	GI50 [8]
Cc1ccc(C(=O)NN=C(/N=N/c2cccc(C)c2)c2ccc(N(C)C)cc2)cc1	> 100 µM	> 100 µM	> 100 µM	> 100 µM	> 100 µM	> 100 µM	> 100 µM	> 100 µM	> 100 µM	> 100 µM										
O=C1/C(=C/C=C/c2ccccc2)CCC1CNc1ccc(Br)cc1 (stereo not given)	> 100 µM	> 100 µM	> 100 µM	> 100 µM	> 100 µM	> 100 µM	> 100 µM	> 100 µM	> 100 µM											
NNc1nnc(-c2ccccc2)nc1Cc1ccccc1		> 100 µM		> 100 µM	> 100 µM	31.6 µM			> 100 µM											
Cc1cn(C2CC(SCCO)C(CO)O2)c(=O)[nH]c1=O (stereo not given)	> 100 µM	> 100 µM		> 100 µM	> 100 µM	> 100 µM	> 100 µM	> 100 µM	> 100 µM	> 100 µM										
OCC1c2ccccc2-n2nc(-c3ccccc3)c(O)c21 (stereo not given)	> 100 µM	53 µM	> 100 µM	52.8 µM		92.4 µM	> 100 µM	92.2 µM	77.2 µM											
O=c1oc2ccccc2c(O)c1C(c1ccc(O)cc1)c1c(O)c2ccccc2oc1=O	> 100 µM		> 100 µM	> 100 µM	> 100 µM	> 100 µM	77.7 µM	> 100 µM	> 100 µM											
O=C(c1ccccc1)c1ccc2nc(-c3c(Cl)c(Cl)c(Cl)c(Cl)c3C(=O)Nc3ccco3)[nH]c2c1	> 100 µM	> 100 µM		> 100 µM	> 100 µM	> 100 µM	> 100 µM	42.7 µM	> 100 µM	> 100 µM										
CCOC(=O)/C(C1=N[C@H](C(=O)OCC)CS1)=C(\O)c1ccccc1	> 100 µM	> 100 µM		> 100 µM	> 100 µM	> 100 µM			> 100 µM	> 100 µM										
C=C1C(=O)O[C@H]2[C@H]1CC/C(COC(=O)/C=C/C(=O)OC/C1=C/CC[C@@]3(C)O[C@H]3[C@H]3OC(=O)C(=C)[C@@H]3CC1)=C\CC[C@@]1(C)O[C@@H]21	3.14 µM		> 100 µM	10.8 µM	0.756 µM				> 100 µM	4 µM		1.64 µM	3.22 µM	2.82 µM	0.253 µM	5.2 µM	0.868 µM			
Cn1c(O)c(/C=N/c2ncccn2)c(=O)[nH]c1=O	> 100 µM		> 100 µM	> 100 µM	> 100 µM	> 100 µM	> 100 µM	> 100 µM	> 100 µM											
CC(C)C(=O)/C=C/c1ccccc1	> 100 µM	> 100 µM		> 100 µM	> 100 µM	> 100 µM			> 100 µM	> 100 µM										
O=C(O)c1cc(Nc2c(O)c3c(c(O)c2Cl)C(=O)C=CC3=O)ccc1O	> 10 µM	> 10 µM	> 10 µM	> 10 µM	> 10 µM	> 10 µM	> 10 µM	> 10 µM	> 10 µM											
CC(C)Oc1cc2c(cc1O)CC[C@@H]1[C@@H]2CC[C@]2(C)[C@@H](O)CC[C@@H]12	24.6 µM	30.8 µM		24.4 µM	14.7 µM	46.6 µM	26.6 µM	10.9 µM	14.4 µM	35.7 µM										
COc1ccc(Nc2nc(NNC(=O)Cc3ccccc3)nc(NNC(=O)c3ccncc3)n2)cc1	> 10 µM	> 10 µM		> 10 µM	> 10 µM	> 10 µM	> 10 µM	> 10 µM	> 10 µM											
Cc1ccc(Cl)c2c(=O)cc(-c3ccccc3)[nH]c12	> 100 µM	> 100 µM		> 100 µM	> 100 µM	> 100 µM			> 100 µM	> 100 µM										
CCCCN(CCCC)C1=Nc2ccccc2-n2c(nnc2C(=O)OCC)C1	90 µM	86.9 µM	> 100 µM		> 100 µM	> 100 µM	> 100 µM	> 100 µM	89.4 µM	> 100 µM										
Cc1cccc(=O)c([O-])c1.Cc1cccc(=O)c([O-])c1.Cc1cccc(=O)c([O-])c1.Cc1cccc(=O)c([O-])c1.[Th+4]	> 63 µM	> 38.6 µM		> 100 µM	35 µM	> 100 µM			> 60.7 µM	> 100 µM										
COc1c(-c2ccc(F)cc2)oc2cc(O)cc(O)c2c1=O		> 100 µM	> 100 µM	97.5 µM	> 100 µM	42.1 µM	43.9 µM	93.8 µM	59.9 µM	> 100 µM										
O=C(NCCNCCO)N/N=C/c1ccccc1	> 100 µM	> 100 µM		> 100 µM	> 100 µM				> 100 µM											
CCC(=O)Nc1ccc(N2C(=O)/C(=C/c3ccc(O)c(OC)c3)N=C2c2ccccc2)cc1	71.5 µM	> 100 µM	> 100 µM		> 100 µM	> 100 µM		> 100 µM	> 100 µM	> 100 µM										
COc1ccc(-c2cc(-c3ccc(OC)c(OC)c3)nc(SCCCC(=O)NO)n2)cc1		> 100 µM	33 µM	5.78 µM	13.7 µM	1.44 µM	8.78 µM	4.15 µM	5.24 µM	6.21 µM	1.11 µM		1.91 µM	1.76 µM	0.96 µM	0.842 µM	0.752 µM	0.301 µM	1.94 µM	1.27 µM
CC(=O)OCC1(CNc2nc(N)ncc2C#N)CC(CCc2ccccc2)C1 (stereo not given)	> 100 µM	> 100 µM	> 100 µM	> 100 µM	> 100 µM	> 100 µM	> 100 µM	> 100 µM	> 100 µM											
